# Data from paper PMC7982521, “Studies on the Changes of Pharmacokinetics Behaviors of Phytochemicals and the Influence on Endogenous Metabolites After the Combination of Radix Bupleuri and Radix Paeoniae Alba Based on Multi-Component Pharmacokinetics and Metabolomics” (Frontiers in Pharmacology, 2021).
# Like-named read-outs stand apart in the source and are kept apart here.
# Assay: Multi-component pharmacokinetics in rat plasma after oral administration of RB, RPA or RB-RPA extracts (UPLC-HRMS, non-compartmental analysis)
# Format: in vivo, Sprague-Dawley rats
# Details: for AUC0-t / AUC0-∞ / Cmax / t1/2 / tmax / AUC(0-inf) / half-life: rat plasma, mean ± SD, n = 7; for change of t1/2 after combination: oral RB-RPA group vs single herbal group
# Description: (Beijing, China, No. SCXK2018-0011). […] All rats were free to access the water and food until 12 h before the experiment. The animal study was reviewed and approved by the Experimental Animal Ethical Committee of Modern Research Center for Traditional Chinese Medicine, Shanxi University (animal ethic approval number: SXULL2018018), and all experimental procedures were carried out in accordance with the NIH Guide for the Care and Use of Laboratory Animals. After one week of adaptation, twenty-one rats were divided into three groups randomly, with seven rats in each group: 1) RPA group, were oral administration of Radix Paeoniae Alba extract (45 g-herb/kg); 2) RB group, were oral administration of Radix Bupleuri extract (45 g-herb/kg); 3) RB-RPA group, were oral administration of powder mixture of Radix Bupleuri and Radix Paeoniae Alba extracts (containing 45 g-herb/kg Radix Bupleuri and 45 g-herb/kg Radix Paeoniae Alba). […] Each group received intragastric administration with a volume of 10 ml/kg (rat body weight). […] All rats were free to access the water during the experiment. The blood samples at each time point were collected from seven rats. The blood samples were centrifuged at 4,000 rpm for 10 min and frozen at -80°C until analysis. Using a Thermo-Fisher Dionex UltiMate 3000 UHPLC system coupled with a Q Exactive Orbitrap-MS (Thermo-Fisher, United States) and Xcalibur workstation (Thermo-Fisher Scientific Inc.,Waltham, MA, United States) to acquire UPLC-HRMS raw data. Chromatographic separation of herb extracts and plasma samples was performed on an Acquity UPLC HSS T3 column (2.1 mm × 100 mm, 1.8 μm) maintained at 37°C. The flow rate was 0.2 ml/min and the injection volume was 5 μL. […] Mass spectrometry detection conditions were set as follows: the MS data were acquired under positive and negative ionization modes via heated electrospray ionization (HESI) source. […] The Q Exactive Orbitrap-MS has a fast positive and negative ion switching function, which could switch between positive-negative ion modes during the analysis of the same sample. So, we applied the method of switching ion modes in the detection process to quantify all analytes better. […] UPLC/MS/MS calibration and quantitation data were processed with Xcalibur workstation (Thermo-Fisher Scientific Inc., Waltham, MA, United States). For the eight components with standard reference, calculating their concentrations from the standard curves. For the other 30 components without standard reference, their concentrations were analyzed following the regression equations of homologous compounds ([Qiao et al., 2012]): paeoniflorin for P1 and M1 to M3; methylgallate for M4 to M10; saikosaponin […] and […]; saikosaponin […]; saikosaponin […]; saikosaponin B2 for P11 and M25 to […].
# [1] = oral RB single extract 45 g-herb/kg
# [2] = oral RB-RPA mixed extracts (45 g-herb/kg RB + 45 g-herb/kg RPA)
# [3] = male, Sprague-Dawley, rat, plasma, po, 45 g/kg, oral RB single extract 45 g-herb/kg
# [4] = oral administration of mixed extracts RB-RPA
# [5] = oral administration of single extract RPA
AUC0-t [1],AUC0-∞ [1],Cmax [1],t1/2 [1],tmax [1],AUC0-t [2],AUC0-∞ [2],Cmax [2],t1/2 [2],tmax [2],Molecule,other results
0.03453 ± 0.00988 µg·h/mL,0.03846 ± 0.00992 µg·h/mL,0.01231 ± 0.00503 µg/mL,3.40 ± 1.47 h,0.75 ± 0.16 h,0.04024 ± 0.01568 µg·h/mL,0.04524 ± 0.01483 µg·h/mL,0.01341 ± 0.00628 µg/mL,3.99 ± 2.19 h,0.79 ± 0.10 h,CC1(C)CC[C@]23CO[C@@]4(C=C[C@@H]5[C@@]6(C)CC[C@H](O)C(C)(C)[C@@H]6CC[C@@]5(C)[C@]4(C)C[C@@H]2O)[C@@H]3C1 [Saikogenin E],–
0.15614 ± 0.08393 µg·h/mL,0.15901 ± 0.08232 µg·h/mL,0.03025 ± 0.01393 µg/mL,4.01 ± 1.88 h,1.04 ± 0.25 h,0.30108 ± 0.19977 µg·h/mL,0.34702 ± 0.17443 µg·h/mL,0.03409 ± 0.01725 µg/mL,6.80 ± 2.11 h,1.17 ± 0.26 h,CC1(C)CC[C@]23CO[C@@]4(C=C[C@@H]5[C@@]6(C)CC[C@H](O)[C@@](C)(CO)[C@@H]6CC[C@@]5(C)[C@]4(C)C[C@@H]2O)[C@@H]3C1 [Saikogenin F],–
0.05001 ± 0.0166 µg·h/mL,0.0572 ± 0.01781 µg·h/mL,0.01126 ± 0.00474 µg/mL,3.96 ± 1.59 h,0.75 ± 0.00 h,0.08879 ± 0.04187 µg·h/mL,0.09959 ± 0.0417 µg·h/mL,0.01267 ± 0.00442 µg/mL,6.53 ± 2.21 h,0.71 ± 0.10 h,CC1(C)CC[C@]23CO[C@@]4(C=C[C@@H]5[C@@]6(C)CC[C@H](O)[C@@](C)(CO)[C@@H]6CC[C@@]5(C)[C@]4(C)C[C@H]2O)[C@@H]3C1 [Saikogenin G],–
0.06514 ± 0.01935 µg·h/mL,0.06792 ± 0.01939 µg·h/mL,0.02233 ± 0.00299 µg/mL,2.70 ± 1.52 h,0.67 ± 0.13 h,0.09863 ± 0.01836 µg·h/mL,0.10439 ± 0.02328 µg·h/mL,0.02819 ± 0.0055 µg/mL,2.89 ± 1.14 h,0.83 ± 0.20 h,C[C@H]1O[C@@H](O[C@H]2CC[C@@]3(C)[C@@H](CC[C@]4(C)[C@@H]3C=CC3=C5CC(C)(C)CC[C@]5(CO)[C@H](O)C[C@]34C)[C@]2(C)CO)[C@H](O)[C@@H](O[C@@H]2O[C@H](CO)[C@@H](O)[C@H](O)[C@H]2O)[C@H]1O [Saikosaponin B2],–
0.03882 ± 0.00984 µg·h/mL,0.04215 ± 0.00873 µg·h/mL,0.03112 ± 0.01108 µg/mL,2.07 ± 1.12 h,0.50 ± 0.16 h,0.05133 ± 0.01619 µg·h/mL,0.05367 ± 0.01616 µg·h/mL,0.02063 ± 0.00565 µg/mL,2.53 ± 1.54 h,0.66 ± 0.30 h,C[C@@H]1O[C@@H](O[C@@H]2[C@H](O)[C@@H](O)[C@H](O[C@H]3CC[C@@]4(C)C(CC[C@]5(C)C4C=C[C@]46OC[C@@]7(CCC(C)(C)CC74)[C@@H](O)C[C@]65C)C3(C)C)O[C@@H]2CO[C@@H]2O[C@H](CO)[C@@H](O)[C@H](O)[C@H]2O)[C@H](O)[C@H](O)[C@H]1O (stereo partly shown) [Saikosaponin C],–

# The next lines start with the molecule.
Molecule,AUC0-t [1],AUC0-∞ [1],Cmax [1],t1/2 [1],tmax [1],AUC0-t [2],AUC0-∞ [2],Cmax [2],t1/2 [2],tmax [2],other results
CC1(C)CC[C@@]2(CO)C(=C3C=C[C@@H]4[C@@]5(C)CC[C@H](O)[C@@](C)(CO)[C@@H]5CC[C@@]4(C)[C@]3(C)C[C@H]2O)C1 [Saikogenin D],0.08139 ± 0.03637 µg·h/mL,0.08533 ± 0.04021 µg·h/mL,0.01651 ± 0.00825 µg/mL,5.10 ± 1.21 h,1.17 ± 0.26 h,0.13178 ± 0.05975 µg·h/mL,0.14132 ± 0.06528 µg·h/mL,0.01975 ± 0.01049 µg/mL,5.78 ± 2.37 h,0.92 ± 0.20 h,–
C[C@H]1O[C@@H](O[C@H]2CC[C@@]3(C)[C@@H](CC[C@]4(C)[C@@H]3C=C[C@]35OC[C@@]6(CCC(C)(C)C[C@H]63)[C@@H](O)C[C@]54C)[C@]2(C)CO)[C@H](O)[C@@H](O[C@@H]2O[C@H](CO)[C@@H](O)[C@H](O)[C@H]2O)[C@H]1O [Saikosaponin A],–,–,–,–,–,–,–,–,–,–,"AUC(0-inf) [3]: 0.104 ± 0.0386 µg·h/mL; half-life [3]: 2.13 ± 0.43 h; AUC0-t (male, Sprague-Dawley, rat, plasma, po, 45 g/kg, oral RB single extract 45 g-herb/kg, read-out: AUC0-t): 0.102 ± 0.0385 µg·h/mL; Cmax (male, Sprague-Dawley, rat, plasma, po, 45 g/kg, oral RB single extract 45 g-herb/kg, read-out: Cmax): 0.0684 ± 0.0169 µg/mL; tmax (male, Sprague-Dawley, rat, plasma, po, 45 g/kg, oral RB single extract 45 g-herb/kg, read-out: tmax): 0.54 ± 0.1 h; AUC(0-inf) (male, Sprague-Dawley, rat, plasma, po, 45 g/kg, oral RB-RPA mixed extracts (45 g-herb/kg RB + 45 g-herb/kg RPA)): 0.176 ± 0.0459 µg·h/mL; Cmax (male, Sprague-Dawley, rat, plasma, po, 45 g/kg, oral RB-RPA mixed extracts (45 g-herb/kg RB + 45 g-herb/kg RPA), read-out: Cmax): 0.0465 ± 0.0124 µg/mL; half-life (male, Sprague-Dawley, rat, plasma, po, oral RB-RPA mixed extracts (45 g-herb/kg RB + 45 g-herb/kg RPA)): 3.55 ± 0.57 h; AUC0-t (male, Sprague-Dawley, rat, plasma, po, oral RB-RPA mixed extracts (45 g-herb/kg RB + 45 g-herb/kg RPA), read-out: AUC0-t): 0.17 ± 0.0482 µg·h/mL; tmax (male, Sprague-Dawley, rat, plasma, po, oral RB-RPA mixed extracts (45 g-herb/kg RB + 45 g-herb/kg RPA), read-out: tmax): 0.63 ± 0.21 h; change of t1/2 after combination (rat): longer"
C[C@H]1O[C@@H](O[C@H]2CC[C@@]3(C)[C@@H](CC[C@]4(C)[C@@H]3C=C[C@]35OC[C@@]6(CCC(C)(C)C[C@H]63)[C@H](O)C[C@]54C)[C@]2(C)CO)[C@H](O)[C@@H](O[C@@H]2O[C@H](CO)[C@@H](O)[C@H](O)[C@H]2O)[C@H]1O [Saikosaponin D],0.06773 ± 0.01862 µg·h/mL,0.06992 ± 0.01738 µg·h/mL,0.04284 ± 0.01153 µg/mL,2.01 ± 0.34 h,0.50 ± 0.16 h,0.09998 ± 0.03148 µg·h/mL,0.10356 ± 0.03367 µg·h/mL,–,2.98 ± 0.89 h,0.87 ± 0.38 h,change of t1/2 after combination (rat): longer
Acetyl-saikosaponin B2,0.01686 ± 0.00434 µg·h/mL,0.01975 ± 0.00388 µg·h/mL,0.01482 ± 0.00441 µg/mL,3.81 ± 1.29 h,0.42 ± 0.13 h,0.02318 ± 0.01277 µg·h/mL,0.02603 ± 0.01358 µg·h/mL,0.01294 ± 0.00629 µg/mL,3.18 ± 1.01 h,0.42 ± 0.13 h,–
Paeonimetabolin II,–,–,–,–,–,–,–,–,–,–,"AUC0-t [4]: 9.49091 ± 4.7059 µg·h/mL; AUC0-∞ [4]: 13.19867 ± 4.47734 µg·h/mL; Cmax [4]: 0.9845 ± 0.45244 µg/mL; t1/2 [4]: 9.30 ± 2.76 h; tmax [4]: 1.17 ± 0.90 h; AUC0-t [5]: 6.69427 ± 2.46869 µg·h/mL; AUC0-∞ [5]: 8.02212 ± 2.76481 µg·h/mL; Cmax [5]: 0.85012 ± 0.29263 µg/mL; t1/2 [5]: 9.22 ± 2.04 h; tmax [5]: 1.04 ± 0.37 h; change of AUC0-∞ after combination (rat, oral RB-RPA group vs single herbal group (RB or RPA)): significantly increased"
Pyrogallol glucuronide,–,–,–,–,–,–,–,–,–,–,"AUC0-t [4]: 0.64356 ± 0.34844 µg·h/mL; AUC0-∞ [4]: 0.82547 ± 0.3939 µg·h/mL; Cmax [4]: 0.04797 ± 0.01398 µg/mL; t1/2 [4]: 10.49 ± 2.78 h; tmax [4]: 2.92 ± 1.43 h; AUC0-t [5]: 0.26273 ± 0.10168 µg·h/mL; AUC0-∞ [5]: 0.33641 ± 0.15976 µg·h/mL; Cmax [5]: 0.03421 ± 0.00494 µg/mL; t1/2 [5]: 6.16 ± 2.02 h; tmax [5]: 2.67 ± 1.85 h; AUC0-∞ after combination relative to RPA alone (rat, oral RB-RPA vs RPA alone): 245.38%; Cmax after combination relative to RPA alone (rat, oral RB-RPA vs RPA alone): 140.22%; t1/2 after combination relative to RPA alone (rat, oral RB-RPA vs RPA alone): 170.29%"
